Drawing on PubChem BioAssay (NCI), this text covers TGI for 30 compounds.

Common to all, as to experiment: NCI anticancer screen, dose series, 48 h
Experiment [1] deals with HL-60(TB) leukemia.
For experiment [2], the system named is NCI-H460 lung.
The subject of experiment [3] is RXF 393 renal.
For experiment [4], the system named is CCRF-CEM leukemia.
Experiment [5] concerns NCI-H522 lung.
In experiment [6] the test system is MDA-MB-435.
Experiment [7] has as its system UO-31 renal.
The test system of experiment [8] is SN12C renal.
For experiment [9], the system named is NCI-H226 lung.
In experiment [10] the test system is K-562 leukemia.

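Five concentrations, 48 hours, 96-well plates. TGI: concentration producing complete growth inhibition.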

`CN(C)CC(O)c1ccc(Cl)c2ccccc12` (centres undefined): the TGI in experiment [1] is more than 78 µM; in experiment [2] it was more than 100 µM; in [3] it was more than 64.9 µM; in [4] it was 53.8 µM; in [5] it was more than 100 µM; in experiment [6] it was 61.2 µM. Also, the figures for the TGI in [7], in experiment [8] and in [9] were more than 62.2 µM, more than 100 µM and more than 57 µM, respectively.

`CCc1n[nH]c(=O)n1CCCCCCCCCCCCn1c(CC)n[nH]c1=O`: the TGI is 71.9 µM in experiment [2]; more than 100 µM in [3]; 64.3 µM in experiment [4]; more than 100 µM in experiment [5]; 76.3 µM in experiment [6]; more than 100 µM in experiment [7]. Also, the TGI in experiment [8], in [10] and in experiment [9] was more than 100 µM throughout.

In the case of `C=CCn1c(=O)c(C)cn(COCCO)c1=O`, the TGI in [2], in experiment [3], in experiment [4], in experiment [5], in [6] and in [7] was more than 100 µM throughout. The TGI in experiment [8], in [10] and in experiment [9] was more than 100 µM throughout.

Consider `c1ccc(/C(=N/Nc2nc3ccccc3s2)C2CCCCC2)nc1`, for which the TGI in experiment [2] was 26.1 µM; in [3], 24.8 µM; in experiment [4] it was 15.4 µM; in experiment [5], 7.32 µM; in experiment [6], 39.3 µM; in experiment [7] it was 15.4 µM. Besides, the TGI was determined as 22.7 µM in experiment [8], 70 µM in experiment [10] and 27.5 µM in experiment [9].

Regarding `COC(=O)C1(NC(=O)C(CC(=O)OCc2ccccc2)NC(=O)OCc2ccccc2)CCCCCC1` (centres undefined), the TGI in experiment [1] is 51 µM; in experiment [2], more than 100 µM; in experiment [3], more than 100 µM; in [5], more than 100 µM; in experiment [6], 74.4 µM; in [7] it was more than 100 µM. Further, the TGI in experiment [10] worked out at 82.9 µM; in experiment [9], 72.7 µM.

On to `Nc1n(CC(=O)c2ccccc2)nc2sc(-c3ccccc3)n[n+]12`, for which the TGI in experiment [2] was 30.5 µM; in experiment [3], 25.1 µM; in experiment [4], more than 100 µM; in experiment [5] it was 34.4 µM; in experiment [6] it was 8.95 µM; in experiment [7] it was 40.3 µM. For the same compound, the TGI is more than 100 µM in [8], more than 100 µM in [10] and 52.2 µM in experiment [9].

Consider `O=c1[nH]c2nc3ccccc3c(=O)n2/c1=C/c1ccc(Cl)cc1`, for which the TGI in experiment [1] was more than 100 µM; in [3], more than 100 µM; in experiment [4] it was more than 100 µM; in experiment [5], 71.8 µM; in experiment [6], 58.5 µM; in [7], more than 100 µM. In experiment [8], this compound yielded a TGI of more than 100 µM.

Take `CCOC(=O)c1c(C)n(Cc2ccc(Cl)cc2Cl)c2c1cc(O)c1[nH]c3c(c12)CCCC3`: the TGI in experiment [1] was 2.79 µM; in experiment [2] it was 89.9 µM; in experiment [3], 41.2 µM; in experiment [4] it was 77.1 µM; in experiment [5], 38.8 µM; in experiment [6], 55.5 µM. Besides, the TGI in [7] was determined as 51.3 µM; in experiment [8], 58.6 µM; in [9], 45.5 µM.

Turning to `O=C(Nc1ccccc1F)c1cc2ccc(O)cc2oc1=Nc1cccc(F)c1`, the TGI is 27 µM in [1]; 57.3 µM in experiment [2]; 15.3 µM in experiment [4]; more than 100 µM in experiment [5]; 35.7 µM in experiment [6]; 29.3 µM in [7]. In [10], this compound came in with a TGI of 79.3 µM.

On to `O=C(O)CC(Cc1ccccc1Cl)C(=O)O` (centres undefined), for which the TGI in experiment [2], in experiment [3], in experiment [4], in [5], in experiment [6] and in experiment [7] was more than 100 µM each time. Further, the TGI in [8], in [10] and in experiment [9] was more than 100 µM in each case.

For `O=c1[nH]cc(NCCCl)c(=O)[nH]1`, the TGI in [2], in experiment [3], in experiment [4], in [5], in experiment [6] and in experiment [7] was more than 100 µM in each case. Besides, the TGI in experiment [8], in experiment [10] and in experiment [9] was more than 100 µM throughout.

Regarding `O=c1[nH]c(Nc2ccccc2)nc2c1ncn2CC(O)CSCCO` (centres undefined), the TGI in experiment [1], in experiment [2], in [4], in experiment [5], in [6] and in experiment [8] was more than 100 µM in each case. The compound further came in with a TGI in [9] of more than 100 µM.

For the compound `COc1ccc(N2CC(=O)N(C(=O)COc3ccc(OCC(=O)N4C(=O)CN(c5ccc(OC)cc5)C4=S)cc3)C2=S)cc1`, the TGI in experiment [2], in [3], in experiment [5], in experiment [6], in [7] and in experiment [8] was more than 100 µM throughout. Further, the TGI in [10] and in experiment [9] was more than 100 µM each time.

As for `CCO/C(=N/S(=O)(=O)C(F)(F)F)N(C(C)C)C(C)C`, the TGI in experiment [1], in experiment [2], in [3], in experiment [4], in experiment [5] and in experiment [6] was more than 100 µM throughout. Further, the TGI in experiment [8] is more than 100 µM.

As for `CC1CC[C@@]2(OC1)OC1C[C@H]3[C@@H]4CC=C5CC(OC6OC(CO)C(OC7OC(CO)C(O)C(OC8OCC(O)C(O)C8O)C7OC7OC(CO)C(OC8OC(C)C(OC9OC(C)C(O)C(O)C9O)C(O)C8O)C(O)C7O)C(O)C6O)CCC5(C)[C@H]4CCC3(C)C1[C@@H]2C` (some centres undefined), the TGI is 17.2 µM in experiment [1]; 20.2 µM in experiment [2]; 14.2 µM in experiment [3]; 21.9 µM in [4]; 16.8 µM in experiment [5]; 18.4 µM in [6]. The figures for the TGI in experiment [8], in experiment [10] and in experiment [9] were 17 µM, 19.6 µM and 18.1 µM, respectively.

Regarding `COC(=O)[C@H]1C=NN[C@@H]1C(=O)N1[C@H]2CC3CC[C@@]2(CS1(=O)=O)C3(C)C`, the TGI in experiment [1], in [2], in [4], in experiment [5], in [6] and in experiment [7] was more than 100 µM each time. Besides, the TGI in [8], in [10] and in experiment [9] was more than 100 µM each time.

In the case of `COc1ccc([C@H]2[C@H]3COC(=O)[C@H]3C(C#N)=C3Sc4ccccc4N32)cc1`, the TGI in experiment [2] is more than 100 µM; in experiment [3], 38.4 µM; in experiment [4], 47.7 µM; in [5], more than 68.2 µM; in experiment [6], more than 100 µM; in experiment [7], more than 100 µM. Further, the results for the TGI in experiment [8], in experiment [10] and in experiment [9] were 36.4 µM, more than 100 µM and more than 100 µM, respectively.

Take `O=C(O)CN(CC(=O)O)C1CCCCC1N1CC(=O)OC(=O)C1` (centres undefined): the TGI in [1], in [2], in [4], in experiment [5], in experiment [6] and in experiment [7] was more than 100 µM each time. Besides, the TGI in experiment [8], in experiment [10] and in experiment [9] was more than 100 µM throughout.

With `S=C1c2ccc(Cl)cc2-n2cnnc2C2CSCN12` (centres undefined), the TGI in experiment [2], in experiment [3], in experiment [4], in experiment [5], in experiment [6] and in experiment [7] was more than 100 µM in each case. Further, the results for the TGI in experiment [8], in [10] and in experiment [9] were more than 100 µM, 27.7 µM and more than 100 µM, respectively.

In the case of `CC(=O)Nc1ccc2c(C)c3c(nc2n1)[nH]c1ccccc13`, the TGI in [2] was 49 µM; in experiment [3] it was more than 100 µM; in experiment [4], more than 100 µM; in experiment [5] it was 53.2 µM; in experiment [6], 87.3 µM; in [7], more than 100 µM. The TGI is more than 100 µM in [8], more than 100 µM in [10] and 67.9 µM in experiment [9].

As to `c1ncn(C23C4C5C6C4C2C6C53)n1` (centres undefined), the TGI in [1], in experiment [2], in [4], in experiment [5], in experiment [6] and in [8] was more than 100 µM each time. Further, the TGI in experiment [10] and in experiment [9] was more than 100 µM throughout.

On to `N#CN1C2CCC1CC(=O)C2`, for which the TGI in experiment [1], in [2], in [4], in experiment [5], in experiment [6] and in experiment [7] was more than 100 µM each time. In addition, the TGI in [8] and in [10] was more than 100 µM throughout.

As to `COc1ccc2c(c1)C(=O)CC1c3cnccc3C(=O)N21` (centres undefined), the TGI in experiment [2] is more than 100 µM; in [3], more than 100 µM; in experiment [5], more than 100 µM; in [6] it was more than 31.6 µM; in [7], 99.5 µM; in experiment [8], more than 100 µM. Further, the TGI in [10] and in experiment [9] was more than 100 µM each time.

As to `CC(C)/C(Cl)=N/OC(=O)Nc1ccc(Br)cc1`, the TGI was determined as 7.62 µM in experiment [1]; 30.7 µM in [2]; 23.9 µM in experiment [3]; 2.93 µM in experiment [4]; 2.97 µM in experiment [5]; 30.7 µM in experiment [6]. The TGI was determined as 23.8 µM in [7], 4.62 µM in experiment [8] and 30.5 µM in experiment [9].

In the case of `Cc1ccc2c(c1)-c1nc(N)c(C#N)c(-c3ccc(Cl)cc3)c1CCS2(=O)=O`, the TGI is 47 µM in experiment [1]; more than 100 µM in experiment [2]; 72 µM in [4]; more than 100 µM in [5]; more than 100 µM in experiment [6]; 86.2 µM in experiment [7]. Further, the TGI in experiment [8] and in [9] was more than 100 µM each time.

Turning to `CC(=O)O[C@H]1CC(C)(C)C(=C=C/C(C)=C/C=C/C=C/C=C(C)/C=C2C=C(/C=C/[C@@]34O[C@]3(C)C[C@@H](O)CC4(C)C)C(=O)O/2)[C@](C)(O)C1`, the TGI in experiment [1] was 4.9 µM; in [2] it was more than 100 µM; in experiment [3] it was 20.5 µM; in [4], 10 µM; in experiment [6], more than 100 µM; in [7], 30.7 µM. Further, the TGI in experiment [8] stood at 35.8 µM; in [10] it was 57.2 µM; in experiment [9], 4.88 µM.

In the case of `C=CCSC1=N/C(=C\c2ccc(Cl)cc2)C(=O)N1CC=C`, the TGI in [1] is 24.5 µM; in [2] it was more than 100 µM; in experiment [3], 45.3 µM; in experiment [4] it was 51.8 µM; in experiment [5] it was 79.9 µM; in [6], more than 100 µM. Besides, the TGI was more than 100 µM in [7], 95.1 µM in experiment [8] and more than 100 µM in experiment [10].

In the case of `Cc1ccc2nc(SCC(=O)N=Nc3c(O)[nH]c4ccccc34)n(-c3ccccc3)c(=O)c2c1`, the TGI was found to be 62.2 µM in [1]; 29 µM in experiment [2]; 27 µM in experiment [3]; 34.5 µM in [4]; 33.7 µM in experiment [6]; 12.9 µM in experiment [7]. Further, the figures for the TGI in experiment [8], in experiment [10] and in [9] were 29.1 µM, 61.9 µM and 35.2 µM, respectively.

As for `CN(C)CCNc1ccc2c(=O)n(CCN(C)C)c(=O)n3c4ccc(O)cc4c(=O)c1c23`, the TGI is 0.174 µM in experiment [2]; 0.224 µM in experiment [3]; less than 0.01 µM in [4]; 0.221 µM in [5]; 0.259 µM in [6]; 0.282 µM in experiment [7]. The TGI in experiment [9] worked out at 0.322 µM.

As for `CCOC(=O)c1ccc(-n2[nH]nc(C(N)=O)c2=O)cc1`, the TGI in experiment [2], in experiment [3], in experiment [4], in [5], in experiment [6] and in experiment [7] was more than 100 µM throughout. In addition, the TGI in [8], in experiment [10] and in experiment [9] was more than 100 µM throughout.
